Laboratory results from patent US20240398828A1, “HETERO-ATOM CONTAINING COMPOUNDS AND USES THEREOF” (Kumquat Biosciences Inc., priority 2021, published 2024).

Legend:
PTPN2 (i.e., TC-PTP) = molecular target: T1, PTPN2 (i.e., TC-PTP) (Homo sapiens, UniProt P17706); assay: Phosphatase activity assay (DiFMUP substrate), PTPN2; type: biochemical; conditions: compounds binned ≤1 uM or >1 uM
T1 sequence (P17706 1-415): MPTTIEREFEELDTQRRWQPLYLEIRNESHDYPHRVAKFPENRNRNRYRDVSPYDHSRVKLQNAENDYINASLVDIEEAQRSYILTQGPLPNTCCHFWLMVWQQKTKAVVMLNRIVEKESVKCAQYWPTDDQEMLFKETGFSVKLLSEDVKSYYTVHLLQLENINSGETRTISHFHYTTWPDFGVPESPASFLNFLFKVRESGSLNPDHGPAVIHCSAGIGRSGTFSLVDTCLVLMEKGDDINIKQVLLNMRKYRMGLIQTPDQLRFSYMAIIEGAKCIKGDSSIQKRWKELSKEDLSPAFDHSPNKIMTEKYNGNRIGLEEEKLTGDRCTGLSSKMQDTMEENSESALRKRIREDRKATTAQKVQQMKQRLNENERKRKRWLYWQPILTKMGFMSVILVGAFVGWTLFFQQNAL
Procedure, shortened: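 Using a Km-level DiFMUP substrate and 0.025 ng/ul PTPN2, phosphatase activity is tracked by DiFMU emission at 450 nm over about 15–30 minutes. Initial rates at ten inhibitor concentrations give IC50 by four-parameter fitting.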

PTPN1 (i.e., PTP1B) = molecular target: T2, PTPN1 (i.e., PTP1B) (Homo sapiens, UniProt P18031); assay: Phosphatase activity assay (DiFMUP substrate), PTP1B; type: biochemical; conditions: compounds binned ≤1 uM or >1 uM
T2 sequence (P18031 1-435): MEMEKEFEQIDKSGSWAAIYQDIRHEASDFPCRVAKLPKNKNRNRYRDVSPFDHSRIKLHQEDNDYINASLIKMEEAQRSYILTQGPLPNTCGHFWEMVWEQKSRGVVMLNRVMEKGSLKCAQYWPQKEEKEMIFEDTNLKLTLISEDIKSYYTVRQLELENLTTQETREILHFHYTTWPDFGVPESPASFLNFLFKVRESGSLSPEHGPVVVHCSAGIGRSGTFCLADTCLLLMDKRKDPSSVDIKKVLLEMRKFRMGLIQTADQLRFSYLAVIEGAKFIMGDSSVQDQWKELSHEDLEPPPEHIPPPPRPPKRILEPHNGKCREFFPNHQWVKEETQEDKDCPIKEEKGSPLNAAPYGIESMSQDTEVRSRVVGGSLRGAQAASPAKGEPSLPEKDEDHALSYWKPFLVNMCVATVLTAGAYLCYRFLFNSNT
Procedure, shortened: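 RT, HEPES pH 7.5 buffer with DTT/Tween-20. 10-point inhibitor series premixed ~2 min with enzyme (PTPN2 0.025 ng/ul). Start with DiFMUP at enzyme Km (~45 μM for PTPN2). Read DiFMU ex360/em450 continuously 15–30 min; initial rate vs concentration, 4-parameter fit → IC50.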

Row | Structure (SMILES) | IC50 (PTPN2 (i.e., TC-PTP)) [nM] | IC50 (PTPN1 (i.e., PTP1B)) [nM]
1 | O=C1CN(c2c(O)ccc(-c3cn(C4CCC4)cn3)c2F)S(=O)(=O)N1 [Compound 241, 5-(3-(1-cyclobutyl-1H-imidazol-4-yl)-2-fluoro-6-hydroxyphenyl)-1,2,5-thiadiazolidin-3-one 1,1-dioxide] | ≤ 1000 | ≤ 1000
2 | O=C1CN(c2c(O)ccc(-c3n[nH]c4ccccc34)c2F)S(=O)(=O)N1 [Compound 168, 5-(2-fluoro-6-hydroxy-3-(1H-indazol-3-yl)phenyl)-1,2,5-thiadiazolidin-3-one 1,1-dioxide] | > 1000 | > 1000
3 | COc1ccc(Cn2cc(-c3ccc(O)c(N4CC(=O)NS4(=O)=O)c3F)cn2)cc1 [Compound 172, 5-(2-fluoro-6-hydroxy-3-(1-(4-methoxybenzyl)-1H-pyrazol-4-yl)phenyl)-1,2,5-thiadiazolidin-3-one 1,1-dioxide] | ≤ 1000 | ≤ 1000
4 | O=C1CN(c2c(O)ccc(-c3nnc(-c4ccccc4)o3)c2F)S(=O)(=O)N1 [Compound 121, 5-(2-fluoro-6-hydroxy-3-(5-phenyl-1,3,4-oxadiazol-2-yl)phenyl)-1,2,5-thiadiazolidin-3-one 1,1-dioxide] | > 1000 | > 1000
5 | Cn1ncc2cc(-c3ccc(O)c(N4CC(=O)NS4(=O)=O)c3F)ccc21 [Compound 112, 5-(2-fluoro-6-hydroxy-3-(1-methyl-1H-indazol-5-yl)phenyl)-1,2,5-thiadiazolidin-3-one 1,1-dioxide] | ≤ 1000 | ≤ 1000
6 | CCCN1CCCC(c2ccc(O)c(N3CC(=O)NS3(=O)=O)c2F)C1 (centres unmarked) [Compound 276, 5-(2-fluoro-6-hydroxy-3-(1-propylpiperidin-3-yl)phenyl)-1,2,5-thiadiazolidin-3-one 1,1-dioxide] | > 1000 | ≤ 1000
7 | Cn1ccc(-c2ccc(F)c(N3CC(=O)NS3(=O)=O)c2F)c1 [Compound 116, 5-(2,6-difluoro-3-(1-methyl-1H-pyrrol-3-yl)phenyl)-1,2,5-thiadiazolidin-3-one 1,1-dioxide] | > 1000 | > 1000
8 | CCOc1ccc(-c2ccc(O)c(N3CC(=O)NS3(=O)=O)c2F)cn1 [Compound 226, 5-(3-(6-ethoxypyridin-3-yl)-2-fluoro-6-hydroxyphenyl)-1,2,5-thiadiazolidin-3-one 1,1-dioxide] | ≤ 1000 | ≤ 1000
9 | Cc1ccc(-c2ccc(O)c(N3CC(=O)NS3(=O)=O)c2F)s1 [Compound 128, 5-(2-fluoro-6-hydroxy-3-(5-methylthiophen-2-yl)phenyl)-1,2,5-thiadiazolidin-3-one 1,1-dioxide] | ≤ 1000 | ≤ 1000
10 | O=C1CN(c2c(O)ccc(-c3ccn(CC4CC4)c3)c2F)S(=O)(=O)N1 [Compound 240, 5-(3-(1-(cyclopropylmethyl)-1H-pyrrol-3-yl)-2-fluoro-6-hydroxyphenyl)-1,2,5-thiadiazolidin-3-one 1,1-dioxide] | ≤ 1000 | ≤ 1000
11 | O=C1CN(c2c(O)ccc(-c3cc(C4CC4)nn3CC3CC3)c2F)S(=O)(=O)N1 [Compound 239, 5-(3-(3-cyclopropyl-1-(cyclopropylmethyl)-1H-pyrazol-5-yl)-2-fluoro-6-hydroxyphenyl)-1,2,5-thiadiazolidin-3-one 1,1-dioxide] | ≤ 1000 | ≤ 1000
12 | CC(C)n1cc(-c2ccc(O)c(N3CC(=O)NS3(=O)=O)c2F)cn1 [Compound 108, 5-(2-fluoro-6-hydroxy-3-(1-isopropyl-1H-pyrazol-4-yl)phenyl)-1,2,5-thiadiazolidin-3-one 1,1-dioxide] | ≤ 1000 | ≤ 1000
13 | CC(C)CCn1cc(-c2ccc(O)c(N3CC(=O)NS3(=O)=O)c2)cn1 [Compound 132, 5-(2-hydroxy-5-(1-isopentyl-1H-pyrazol-4-yl)phenyl)-1,2,5-thiadiazolidin-3-one 1,1-dioxide] | ≤ 1000 | ≤ 1000
14 | O=C1CN(c2c(O)ccc(-c3c(F)ccc4[nH]ncc34)c2F)S(=O)(=O)N1 [Compound 152, 5-(2-fluoro-3-(5-fluoro-1H-indazol-4-yl)-6-hydroxyphenyl)-1,2,5-thiadiazolidin-3-one 1,1-dioxide] | ≤ 1000 | ≤ 1000
15 | CC(C)CCn1cc(-c2ccc(O)c(N3CC(=O)NS3(=O)=O)c2F)nn1 [Compound 219, 5-(2-fluoro-6-hydroxy-3-(1-isopentyl-1H-1,2,3-triazol-4-yl)phenyl)-1,2,5-thiadiazolidin-3-one 1,1-dioxide] | ≤ 1000 | ≤ 1000

The next lines start with the values.

Row | IC50 (PTPN2 (i.e., TC-PTP)) [nM] | IC50 (PTPN1 (i.e., PTP1B)) [nM] | Structure (SMILES)
16 | ≤ 1000 | ≤ 1000 | CC#Cc1cc(-c2ccc(O)c(N3CC(=O)NS3(=O)=O)c2F)[nH]n1 [Compound 354, 5-(2-fluoro-6-hydroxy-3-(3-(prop-1-yn-1-yl)-1H-pyrazol-5-yl)phenyl)-1,2,5-thiadiazolidin-3-one 1,1-dioxide]
17 | ≤ 1000 | ≤ 1000 | O=C1CN(c2c(O)ccc(-c3cc(C#Cc4cccnc4)n[nH]3)c2F)S(=O)(=O)N1 [Compound 434, 5-(2-fluoro-6-hydroxy-3-(3-(pyridin-3-ylethynyl)-1H-pyrazol-5-yl)phenyl)-1,2,5-thiadiazolidin-3-one 1,1-dioxide]
18 | ≤ 1000 | ≤ 1000 | O=C1CN(c2c(O)ccc(-c3cc(-c4ccccc4)no3)c2F)S(=O)(=O)N1 [Compound 401, 5-(2-fluoro-6-hydroxy-3-(3-phenylisoxazol-5-yl)phenyl)-1,2,5-thiadiazolidin-3-one 1,1-dioxide]
19 | ≤ 1000 | ≤ 1000 | O=C1CN(c2c(O)ccc(-n3cc(C4CC4)c(O)n3)c2F)S(=O)(=O)N1 [Compound 458, 5-(3-(4-cyclopropyl-3-hydroxy-1H-pyrazol-1-yl)-2-fluoro-6-hydroxyphenyl)-1,2,5-thiadiazolidin-3-one 1,1-dioxide]
20 | ≤ 1000 | ≤ 1000 | Cn1nc(-c2ccc(O)c(N3CC(=O)NS3(=O)=O)c2F)cc1O [Compound 479, 5-(2-fluoro-6-hydroxy-3-(5-hydroxy-1-methyl-1H-pyrazol-3-yl)phenyl)-1,2,5-thiadiazolidin-3-one 1,1-dioxide]
21 | ≤ 1000 | ≤ 1000 | O=C1CN(c2c(O)ccc(-c3cc(C4CCOCC4)n[nH]3)c2F)S(=O)(=O)N1 [Compound 420, 5-(2-fluoro-6-hydroxy-3-(3-(tetrahydro-2H-pyran-4-yl)-1H-pyrazol-5-yl)phenyl)-1,2,5-thiadiazolidin-3-one 1,1-dioxide]
22 | ≤ 1000 | ≤ 1000 | O=C1CN(c2c(O)ccc(-c3cc(N4CCC4)n[nH]3)c2F)S(=O)(=O)N1 [Compound 417, 5-(3-(3-(azetidin-1-yl)-1H-pyrazol-5-yl)-2-fluoro-6-hydroxyphenyl)-1,2,5-thiadiazolidin-3-one 1,1-dioxide]
23 | ≤ 1000 | ≤ 1000 | NC1CC=C(c2ccc(O)c(N3CC(=O)NS3(=O)=O)c2F)C1 (centres unmarked) [Compound 330, 5-(3-(4-aminocyclopent-1-en-1-yl)-2-fluoro-6-hydroxyphenyl)-1,2,5-thiadiazolidin-3-one 1,1-dioxide]
24 | ≤ 1000 | ≤ 1000 | CC(C)CNCc1cc(-c2ccc(O)c(N3CC(=O)NS3(=O)=O)c2F)nn1C [Compound 288, 5-(2-fluoro-6-hydroxy-3-(5-((isobutylamino)methyl)-1-methyl-1H-pyrazol-3-yl)phenyl)-1,2,5-thiadiazolidin-3-one 1,1-dioxide]
25 | ≤ 1000 | ≤ 1000 | CCCC1C=C(c2ccc(O)c(N3CC(=O)NS3(=O)=O)c2F)CN1 (centres unmarked) [Compound 515, 5-(2-fluoro-6-hydroxy-3-(5-propyl-2,5-dihydro-1H-pyrrol-3-yl)phenyl)-1,2,5-thiadiazolidin-3-one 1,1-dioxide]
26 | ≤ 1000 | ≤ 1000 | COc1ccc(-n2cnc(-c3ccc(O)c(N4CC(=O)NS4(=O)=O)c3F)c2)cc1 [Compound 348, 5-(2-fluoro-6-hydroxy-3-(1-(4-methoxyphenyl)-1H-imidazol-4-yl)phenyl)-1,2,5-thiadiazolidin-3-one 1,1-dioxide]
27 | ≤ 1000 | ≤ 1000 | O=C1CN(c2c(O)ccc(-c3cc(C#CC4CC4)n[nH]3)c2F)S(=O)(=O)N1 [Compound 352, 5-(3-(3-(cyclopropylethynyl)-1H-pyrazol-5-yl)-2-fluoro-6-hydroxyphenyl)-1,2,5-thiadiazolidin-3-one 1,1-dioxide]
28 | ≤ 1000 | ≤ 1000 | O=C1CN(c2c(O)ccc(-c3cc(N4CCCOCC4)n[nH]3)c2F)S(=O)(=O)N1 [Compound 344, 5-(3-(3-(1,4-oxazepan-4-yl)-1H-pyrazol-5-yl)-2-fluoro-6-hydroxyphenyl)-1,2,5-thiadiazolidin-3-one 1,1-dioxide]
